Results on 18 compounds are retold here after patent publication US12421205B2, “GLP-1 receptor agonist” (HYUNDAI PHARM CO., LTD., priority 2019, dated 2025).

One data set addresses T1, hERG (Homo sapiens, UniProt Q12809).
T1 construct: purchased Invitrogen PV5365
The data set is described as follows: hERG inhibition test (Predictor hERG Fluorescence Polarization assay kit). Type of data set: binding. The following applies: probe kit Tracer (fluorescent hERG ligand), hERG % inhibition at 10 uM, relative to E-4031 and solvent control. The protocol:
To measure the hERG (Human ether-a-go-go-related gene) channel inhibition rate of the compound according to the present invention, the following test was performed using a Predictor hERG Fluorescence Polarization assay kit (Invitrogen, PV5365).
Specifically, a test substance was dissolved in DMSO to prepare a 50 mM solution. A 4 mM solution was prepared by diluting the 50 mM solution with DMSO in a U bottom 96-well plate (SPL, 34096), and was then diluted 100-fold with a test buffer to prepare a 40 uM (4×) solution. The positive control E-4031 (3 mM) provided in the kit was diluted 25-fold with a test buffer to prepare a 120 uM solution) 5 uL of the diluted test substance solution was dispensed into a 384-well assay plate (corning, 3677). hERG Membrane (2×) and Tracer (4×) provided in the kit were respectively added at 10 uL and 5 uL, and then subjected to the reaction at room temperature for 2.5 hours. After completion of the reaction, fluorescence polarization (mP) was measured with a Multimode Plate Reader (Perkin-Elmer, Envision) (excitation wavelength of 531 nm, and emission wavelength 579 nm). The value of the percent inhibitory activity (% inhibition) at 10 uM of each test substance was calculated by the following equation, and the results are shown in Table 2: (% inhibition)=100−{(mP of the compound according to the present invention−E-4031 mP)/(mP of the solvent control−E-4031 mP)}×100

Another data set concerns the target T2, human GLP-1 receptor (Homo sapiens, UniProt P43220).
T2 construct: host or cells: CHO-K1
The data set is described as follows: cAMP activity test (cAMP dynamic HTRF kit) in CHO-K1/GLP-1 receptor-expressing cells. In kind it is cell-based. The conditions noted are these: cAMP activity, CHO-K1/GLP-1 receptor-expressing cells; read-out: EC50. The protocol: The next day, the medium was removed, and a 50 uL of HBSS medium containing 0.1% BSA, 0.5 mM IBMX, and 5 mM HEPES was added to each well. […] The cAMP activity was measured according to the manufacturer's instructions using the cAMP dynamic HTRF kit (Cisbio, 62AM4PEC). After incubation, the medium was discarded, and the cells were lysed. cAMP-d2 and anti-cAMP cryptate conjugate were added thereto and reacted for 3 hours. […] Intracellular cAMP competes with cAMP-d2 for anti-cAMP cryptate, and the measured signal of fluorescence resonance energy transfer (FRET) is inversely proportional to intracellular cAMP.

T2 sequence (P43220 24-463): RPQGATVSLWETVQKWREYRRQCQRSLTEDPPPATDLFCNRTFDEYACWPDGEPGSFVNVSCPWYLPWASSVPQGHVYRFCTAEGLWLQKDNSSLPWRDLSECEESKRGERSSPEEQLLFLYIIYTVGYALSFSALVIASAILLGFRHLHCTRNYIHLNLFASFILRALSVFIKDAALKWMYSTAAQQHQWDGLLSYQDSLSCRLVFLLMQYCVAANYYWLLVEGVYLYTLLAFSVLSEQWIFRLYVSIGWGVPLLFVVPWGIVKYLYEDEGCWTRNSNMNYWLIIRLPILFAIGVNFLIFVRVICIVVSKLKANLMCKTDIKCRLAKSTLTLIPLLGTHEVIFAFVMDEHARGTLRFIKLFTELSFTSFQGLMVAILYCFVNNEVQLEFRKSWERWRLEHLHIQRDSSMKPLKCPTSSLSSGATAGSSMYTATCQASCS
T1 sequence (Q12809 whole entry): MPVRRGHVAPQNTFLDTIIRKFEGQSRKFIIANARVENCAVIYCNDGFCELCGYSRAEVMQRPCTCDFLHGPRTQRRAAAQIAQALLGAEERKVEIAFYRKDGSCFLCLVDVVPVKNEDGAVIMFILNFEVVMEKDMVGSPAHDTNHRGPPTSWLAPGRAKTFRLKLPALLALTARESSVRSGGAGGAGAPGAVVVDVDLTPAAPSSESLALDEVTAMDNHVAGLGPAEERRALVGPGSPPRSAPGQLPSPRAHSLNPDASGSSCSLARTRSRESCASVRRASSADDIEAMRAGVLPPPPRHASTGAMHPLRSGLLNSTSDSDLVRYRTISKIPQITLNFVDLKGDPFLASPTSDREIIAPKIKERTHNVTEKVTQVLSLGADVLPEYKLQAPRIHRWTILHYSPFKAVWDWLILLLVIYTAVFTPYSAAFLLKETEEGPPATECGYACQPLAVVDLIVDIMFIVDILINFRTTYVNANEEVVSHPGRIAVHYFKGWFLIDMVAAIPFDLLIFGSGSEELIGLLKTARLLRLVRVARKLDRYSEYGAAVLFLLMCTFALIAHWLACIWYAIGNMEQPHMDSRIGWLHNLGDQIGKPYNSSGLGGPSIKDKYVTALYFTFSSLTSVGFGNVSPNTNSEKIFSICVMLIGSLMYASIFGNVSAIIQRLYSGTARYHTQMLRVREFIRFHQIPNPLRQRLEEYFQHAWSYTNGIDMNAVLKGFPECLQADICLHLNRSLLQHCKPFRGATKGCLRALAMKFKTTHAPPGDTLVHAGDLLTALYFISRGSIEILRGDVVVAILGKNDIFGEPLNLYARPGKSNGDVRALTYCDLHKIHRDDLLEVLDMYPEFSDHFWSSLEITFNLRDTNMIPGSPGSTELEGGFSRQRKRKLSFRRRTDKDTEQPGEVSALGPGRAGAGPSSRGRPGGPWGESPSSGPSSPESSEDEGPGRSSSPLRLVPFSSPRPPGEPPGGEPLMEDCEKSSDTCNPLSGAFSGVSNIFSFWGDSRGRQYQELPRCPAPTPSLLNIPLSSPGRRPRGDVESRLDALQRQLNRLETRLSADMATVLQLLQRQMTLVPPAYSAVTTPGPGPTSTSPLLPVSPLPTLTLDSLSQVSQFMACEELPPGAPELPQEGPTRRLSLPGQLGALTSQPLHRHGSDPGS

As to `N#Cc1ccc(COc2cccc(-c3ccc(Cc4nc5ccc(C(=O)O)cc5n4CC4CCCO4)cc3F)n2)c(F)c1` (centres unmarked) [Example 130, 2-(4-(6-((4-cyano-2-fluorobenzyl)oxy)pyridin-2-yl)-3-fluorobenzyl)-1-((tetrahydrofuran-2-yl)methyl)-1H-benzo[d]imidazole-6-carboxylic acid], the inhibition at 2.5 h, 10 µM on hERG is -6.76%. For the same compound, the 50% effective concentration (EC50) on human GLP-1 receptor was determined as 21 nM.

Take `O=C(O)c1ccc2nc(Cc3ccc(-c4cccc(OCc5c(F)cccc5Cl)n4)c(F)c3)n(C[C@@H]3CCO3)c2c1` [Example 126, (S)-2-(4-(6-((2-chloro-6-fluorobenzyl)oxy)pyridin-2-yl)-3-fluorobenzyl)-1-(oxetan-2-ylmethyl)-1H-benzo[d]imidazole-6-carboxylic acid]: the inhibition at 2.5 h, 10 µM at hERG was -3.99%. For the same compound, the EC50 on human GLP-1 receptor amounted to 510 nM.

In the case of `N#Cc1ccc(COc2cccc(-c3ccc(Cc4nc5ccc(C(=O)O)cc5n4CC4CCCO4)cc3)c2)c(F)c1` (centres unmarked) [Example 8, 2-((3′-(4-cyano-2-fluorobenzyloxy)biphenyl-4-yl)methyl)-1-((tetrahydrofuran-2-yl)methyl)-1H-benzo[d]imidazole-6-carboxylic acid], the inhibition at 2.5 h, 10 µM at hERG was 4.01%. Moreover, the EC50 on human GLP-1 receptor was 120 nM. On the same counts, the results for `N#Cc1ccc(COc2cccc(-c3ccc(Cc4nc5ccc(C(=O)O)cc5n4C[C@@H]4CCCO4)cc3F)n2)c(F)c1` [Example 67, (S)-2-(4-(6-(4-cyano-2-fluorobenzyloxy)pyridin-2-yl)-3-fluorobenzyl)-1-((tetrahydrofuran-2-yl)methyl)-1H-benzo[d]imidazole-6-carboxylic acid] are 0.85% and 11 nM. For `COCCn1c(Cc2ccc(-c3cccc(COc4ccc(Cl)cc4F)n3)cc2[N+](=O)[O-])nc2ccc(C(=O)O)cc21` [Example 7, 2-(4-(6-((4-chloro-2-fluorophenoxy)methyl)pyridin-2-yl)-2-nitrobenzyl)-1-(2-methoxyethyl)-1H-benzo[d]imidazole-6-carboxylic acid] the same measures were 1.63% and 2000 nM. On the same counts, the results for `Cc1ccc(COc2cccc(-c3ccc(Cc4nc5ccc(C(=O)O)cc5n4CC4CCCO4)c(F)c3)n2)cc1` (centres unmarked) [Example 76, 2-(2-fluoro-4-(6-(4-methylbenzyloxy)pyridin-2-yl)benzyl)-1-((tetrahydrofuran-2-yl)methyl)-1H-benzo[d]imidazole-6-carboxylic acid] are -0.5% and 38 nM. Consider `COCCn1c(Cc2c(F)cc(-c3cccc(OCc4ccc(Cl)cc4F)c3)cc2F)nc2ccc(C(=O)O)cc21` [Example 48, 2-((3′-(4-chloro-2-fluorobenzyloxy)-3,5-difluorobiphenyl-4-yl)methyl)-1-(2-methoxyethyl)-1H-benzo[d]imidazole-6-carboxylic acid], for which the inhibition at 2.5 h, 10 µM on hERG is 14.3%. The EC50 on human GLP-1 receptor is 42 nM. On the same counts, the results for `O=C(O)c1ccc2nc(Cc3ccc(-c4cccc(OCc5ccc(Cl)cc5F)c4)cc3)n(CC3CCCO3)c2c1` (centres unmarked) [Example 24, 2-((3′-(4-chloro-2-fluorobenzyloxy)biphenyl-4-yl)methyl)-1-((tetrahydrofuran-2-yl)methyl)-1H-benzo[d]imidazole-6-carboxylic acid] are -7.68% and 130 nM. For `N#Cc1ccc(COc2cccc(-c3ccc(Cc4nc5ccc(C(=O)O)cc5n4C[C@@H]4CCO4)cc3F)n2)cc1` [Example 118, (S)-2-(4-(6-((4-cyanobenzyl)oxy)pyridin-2-yl)-3-fluorobenzyl)-1-(oxetan-2-ylmethyl)-1H-benzo[d]imidazole-6-carboxylic acid] the same measures were 20.7% and 4.3 nM.

In the case of `O=C(O)c1ccc2nc(Cc3ccc(-c4cccc(OCc5ccc(F)c(F)c5)n4)c(F)c3)n(CC3CCCO3)c2c1` (centres unmarked) [Example 98, 2-(4-(6-(3,4-difluorobenzyloxy)pyridin-2-yl)-3-fluorobenzyl)-1-((tetrahydrofuran-2-yl)methyl)-1H-benzo[d]imidazole-6-carboxylic acid], the inhibition at 2.5 h, 10 µM on hERG is -2.76%. Also, the concentration giving a half-maximal response (EC50) at human GLP-1 receptor was found to be 61 nM. On the same counts, the results for `N#Cc1ccc(COc2cccc(-c3ccc(Cc4nc5ccc(C(=O)O)cc5n4CC4CCCO4)c(F)c3)c2)c(F)c1` (centres unmarked) [Example 14, 2-((3′-(4-cyano-2-fluorobenzyloxy)-3-fluorobiphenyl-4-yl)methyl)-1-((tetrahydrofuran-2-yl)methyl)-1H-benzo[d]imidazole-6-carboxylic acid] are -6.08% and 93 nM.

For the compound `N#Cc1ccc(COc2cccc(-c3cc(F)c(Cc4nc5ccc(C(=O)O)cc5n4C[C@@H]4CCO4)c(F)c3)n2)c(F)c1` [Example 103, (S)-2-(4-(6-(4-cyano-2-fluorobenzyloxy)pyridin-2-yl)-2,6-difluorobenzyl)-1-(oxetan-2-ylmethyl)-1H-benzo[d]imidazole-6-carboxylic acid], the inhibition at 2.5 h, 10 µM on hERG is 5.66%. For the same compound, the concentration for a half-maximal effect (EC50) at human GLP-1 receptor is less than 3.2 nM. Regarding `O=C(O)c1ccc2nc(Cc3ccc(-c4cccc(OCc5ccc(Cl)cc5F)n4)cc3F)n(C[C@@H]3CCCO3)c2c1` [Example 59, (S)-2-(4-(6-(4-chloro-2-fluorobenzyloxy)pyridin-2-yl)-2-fluorobenzyl)-1-((tetrahydrofuran-2-yl)methyl)-1H-benzo[d]imidazole-6-carboxylic acid], the inhibition at 2.5 h, 10 µM at hERG was -21%. Moreover, at human GLP-1 receptor, the concentration for a half-maximal effect (EC50) turned out to be 5.8 nM. Regarding `O=C(O)c1ccc2nc(Cc3ccc(-c4cccc(OCc5ccc(Cl)cc5F)n4)cc3)n(Cc3cccnc3)c2c1` [Example 1, 2-(4-(6-(4-chloro-2-fluorobenzyloxy)pyridin-2-yl)benzyl)-1-(pyridin-3-ylmethyl)-1H-benzo[d]imidazole-6-carboxylic acid], the inhibition at 2.5 h, 10 µM at hERG is 1.26%. In addition, the 50% effective concentration (EC50) at human GLP-1 receptor worked out at 10 nM.

For the compound `O=C(O)c1ccc2nc(Cc3ccc(-c4cccc(OCc5ccc(Cl)cc5F)n4)cc3F)n(C[C@@H]3CCO3)c2c1` [Example 78, (S)-2-(4-(6-(4-chloro-2-fluorobenzyloxy)pyridin-2-yl)-2-fluorobenzyl)-1-(oxetan-2-ylmethyl)-1H-benzo[d]imidazole-6-carboxylic acid], the inhibition at 2.5 h, 10 µM on hERG is -17.9%. Same read-out and setting: the figure for `N#Cc1ccc(COc2cccc(-c3ccc(Cc4nc5ccc(C(=O)O)cc5n4C[C@@H]4CCO4)c(F)c3)n2)c(F)c1` [Example 73, (S)-2-(4-(6-(4-cyano-2-fluorobenzyloxy)pyridin-2-yl)-2-fluorobenzyl)-1-(oxetan-2-ylmethyl)-1H-benzo[d]imidazole-6-carboxylic acid] is -14.6%. Still for that read-out and setting: the figure for `O=C(O)c1ccc2nc(Cc3ccc(-c4cccc(OCc5ccc(Cl)cc5)n4)c(F)c3)n(CC3CCCO3)c2c1` (centres unmarked) [Example 94, 2-(4-(6-(4-chlorobenzyloxy)pyridin-2-yl)-3-fluorobenzyl)-1-((tetrahydrofuran-2-yl)methyl)-1H-benzo[d]imidazole-6-carboxylic acid] is 18.9%; for `O=C(O)c1ccc2nc(Cc3ccc(-c4cccc(OCC5CC5)n4)c(F)c3)n(C[C@@H]3CCO3)c2c1` [Example 135, (S)-2-(4-(6-(cyclopropylmethoxy)pyridin-2-yl)-3-fluorobenzyl)-1-(oxetan-2-ylmethyl)-1H-benzo[d]imidazole-6-carboxylic acid] it is -14%.
